Measured values taken from US10017556B2, “Insulin receptor partial agonists” (MERCK SHARP & DOHME CORP., priority 2014, dated 2018).

Tested on: lean C57BL/6NTac mice
Experiment: Intraperitoneal Insulin Tolerance Test (IP-ITT)
Format: in vivo
Details: intraperitoneal injection, two doses per compound (Table 16), blood glucose 30 to 360 min after dose
Experimental: Groups of N=6-8 animals per group were randomized by weight (average about 30 grams). Two days prior to study, the mice were conditioned to dosing with an intraperitoneal injection of 0.9% Sodium Chloride solution at 5 ml/kg dosing volume. On the morning of the study, food was removed two or four hours prior to the study. Blood glucose concentrations were determined at T=0 min (baseline) using a Glucometer. […] Blood glucose levels were determined from tail bleeds taken between 30 to 360 minutes after dose.

B29,B29′-suberoyl-(insulin)2 [Compound B, reference compound]
glucose profile at low versus high dose in IP-ITT: increasing the dosage of compounds A and B caused an increased glucose lowering potency
